# Reference: patent US20260166039A1 (SCHRÖDINGER, INC., priority 2022, published 2026)
# Target: T1, Wee1 kinase domain (Homo sapiens, UniProt P30291)
# T1 construct: Wee1 kinase domain was purchased from Carna (catalog #05-177); purchased Carna 05-177
# Experiment: Wee1 Kinase Biochemical Assay (ADP-Glo)
# Details: class symbols; 1 nM Wee1 enzyme, 15 uM ATP, 4 hours at 25° C.
# How it was run: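 Poly(Lys,Tyr 4:1) phosphorylation by the kinase domain is followed as ADP output (ADP-Glo) after 4 h at 25 °C, with ATP at 15 uM. Values are percent inhibition between vehicle and full-inhibition controls.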
# T1 sequence (P30291 299-569 limits assumed): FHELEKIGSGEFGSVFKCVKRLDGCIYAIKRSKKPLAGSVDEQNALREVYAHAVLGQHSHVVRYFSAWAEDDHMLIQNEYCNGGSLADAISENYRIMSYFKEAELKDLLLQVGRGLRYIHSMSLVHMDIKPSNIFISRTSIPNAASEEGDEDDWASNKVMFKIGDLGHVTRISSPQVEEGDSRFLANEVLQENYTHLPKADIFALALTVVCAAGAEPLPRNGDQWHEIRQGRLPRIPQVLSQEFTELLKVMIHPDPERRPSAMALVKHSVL
row,SMILES,IC50
1,"CNCc1cccc(N2c3nc(Nc4ccc(N5CCN(C)CC5)c(C)c4)ncc3[C@]3(C)COC(C)(C)C[C@H]23)n1 (single isomer, unassigned) [Example 447]",100 to 1000 nM
2,"CNCc1cccc(N2c3nc(Nc4ccc(N5CCN(C)C(=O)C5)cc4)ncc3[C@]3(C)COC(C)(C)C[C@H]23)n1 (single isomer, unassigned) [Example 449]",10 to 100 nM
3,"CNCc1cccc(N2c3nc(Nc4ccn(C)c(=O)c4)ncc3[C@]3(C)COC(C)(C)C[C@H]23)n1 (single isomer, unassigned) [Example 455]",≥ 1000 nM
4,"CNCc1cccc(N2c3nc(Nc4ccn(C)c(=O)c4)ncc3[C@@]3(C)COC(C)(C)C[C@@H]23)n1 (single isomer, unassigned) [Example 456]",10 to 100 nM
5,"CNCc1cccc(N2c3nc(Nc4ccc(-c5cnn(C)c5)nc4)ncc3[C@]3(C)COC(C)(C)C[C@H]23)n1 (single isomer, unassigned) [Example 459]",100 to 1000 nM
6,"CNCc1cccc(N2c3nc(Nc4ccc(=O)n(C)c4)ncc3[C@]3(C)COC(C)(C)C[C@H]23)n1 (single isomer, unassigned) [Example 461]",≥ 1000 nM
7,"CNCc1cccc(N2c3nc(Nc4ccc(=O)n(C)c4)ncc3[C@@]3(C)COC(C)(C)C[C@@H]23)n1 (single isomer, unassigned) [Example 462]",10 to 100 nM
8,"CNCc1cccc(N2c3nc(Nc4ccc(-c5cnn(C)c5)c(C)c4)ncc3[C@]3(C)COC(C)(C)C[C@H]23)n1 (single isomer, unassigned) [Example 463]",100 to 1000 nM
9,"CNCc1cccc(N2c3nc(Nc4ccc(-n5ccnc5)c(F)c4)ncc3[C@]3(C)COC(C)(C)C[C@H]23)n1 (single isomer, unassigned) [Example 465]",100 to 1000 nM
10,"CNCc1cccc(N2c3nc(Nc4ccc(-n5ccnc5)nc4)ncc3[C@]3(C)COC(C)(C)C[C@H]23)n1 (single isomer, unassigned) [Example 467]",≥ 1000 nM
11,"CNCc1cccc(N2c3nc(Nc4cccc(N5CCOCC5)c4)ncc3[C@]3(C)COC(C)(C)C[C@H]23)n1 (single isomer, unassigned) [Example 469]",100 to 1000 nM
12,"CNCc1cccc(N2c3nc(Nc4cnn(C)c4)ncc3[C@]3(C)COC(C)(C)C[C@H]23)n1 (single isomer, unassigned) [Example 471]",100 to 1000 nM
13,"CNCc1cccc(N2c3nc(Nc4cnnc(C)c4)ncc3[C@]3(C)COC(C)(C)C[C@H]23)n1 (single isomer, unassigned) [Example 477]",100 to 1000 nM
14,"CNCc1cccc(N2c3nc(Nc4cnnc(C)c4)ncc3[C@@]3(C)COC(C)(C)C[C@@H]23)n1 (single isomer, unassigned) [Example 478]",10 to 100 nM
15,"CNCc1cccc(N2c3nc(Nc4ccc(N5[C@@H]6COC[C@H]5C6)cc4)ncc3[C@]3(C)COC(C)(C)C[C@H]23)n1 (single isomer, unassigned) [Example 480]",100 to 1000 nM
16,"CC1(C)C[C@H]2N(c3cccc(N=S(C)(C)=O)n3)c3nc(Nc4ccc(N5CCN6CCC[C@H]6C5)cc4)ncc3[C@@]2(C)CO1 (single isomer, unassigned) [Example 507]",< 10 nM
17,"CN1CCN(c2ccc(Nc3ncc4c(n3)N(c3cccc(N=S(C)(C)=O)n3)[C@@H]3CC(C)(C)OC[C@]43C)cn2)CC1 (single isomer, unassigned) [Example 509]",< 10 nM
18,"CN1CCN(c2ccc(Nc3ncc4c(n3)N(c3cccc(N=S(C)(C)=O)n3)[C@@H]3CC(C)(C)OC[C@]43C)nc2)CC1 (single isomer, unassigned) [Example 510]",< 10 nM
19,"CC1(C)C[C@H]2N(c3cccc(N=S(C)(C)=O)n3)c3nc(Nc4ccncc4)ncc3[C@@]2(C)CO1 (single isomer, unassigned) [Example 512]",100 to 1000 nM
20,"Cn1ccc(Nc2ncc3c(n2)N(c2cccc(N=S(C)(C)=O)n2)[C@@H]2CC(C)(C)OC[C@]32C)n1 (single isomer, unassigned) [Example 513]",< 10 nM
21,"Cn1ncc(Nc2ncc3c(n2)N(c2cccc(N=S(C)(C)=O)n2)[C@@H]2CC(C)(C)OC[C@]32C)n1 (single isomer, unassigned) [Example 515]",< 10 nM
22,"CCn1cc(Nc2ncc3c(n2)N(c2cccc(N=S(C)(C)=O)n2)[C@@H]2CC(C)(C)OC[C@]32C)nn1 (single isomer, unassigned) [Example 516]",< 10 nM
23,"Cc1cc(Nc2ncc3c(n2)N(c2cccc([C@H]4CCCN4)n2)[C@H]2CC(C)(C)OC[C@@]32C)ccc1N1CCOCC1 (single isomer, unassigned) [Example 521]",100 to 1000 nM

# Further lines, results first:
row,IC50,SMILES
1,100 to 1000 nM,"CN1C[C@H]2C[C@@H]1CN2c1ccc(Nc2ncc3c(n2)N(c2cccc(C(C)(C)O)n2)[C@H]2CC(C)(C)OC[C@@]32C)cc1 (single isomer, unassigned) [Example 414]"
2,100 to 1000 nM,"CN1C[C@@H]2C[C@H]1CN2c1ccc(Nc2ncc3c(n2)N(c2cccc(C(C)(C)O)n2)[C@H]2CC(C)(C)OC[C@@]32C)cc1 (single isomer, unassigned) [Example 415]"
3,10 to 100 nM,"CC1(C)C[C@H]2N(c3cccc(C(C)(C)O)n3)c3nc(Nc4ccc(O[C@@H]5CCNC5)cc4)ncc3[C@@]2(C)CO1 (single isomer, unassigned) [Example 418]"
4,10 to 100 nM,"CC1(C)C[C@@H]2N(c3cccc(C(C)(C)O)n3)c3nc(Nc4ccc(O[C@H]5CCNC5)cc4)ncc3[C@]2(C)CO1 (single isomer, unassigned) [Example 420]"
5,10 to 100 nM,"CN1CC[C@H](Oc2ccc(Nc3ncc4c(n3)N(c3cccc(C(C)(C)O)n3)[C@H]3CC(C)(C)OC[C@@]43C)cc2)C1 (single isomer, unassigned) [Example 422]"
6,10 to 100 nM,"CN1CC[C@@H](Oc2ccc(Nc3ncc4c(n3)N(c3cccc(C(C)(C)O)n3)[C@@H]3CC(C)(C)OC[C@]43C)cc2)C1 (single isomer, unassigned) [Example 424]"
7,10 to 100 nM,"Cc1cc(Nc2ncc3c(n2)N(c2cccc(C(C)(C)O)n2)[C@H]2CC(C)(C)OC[C@@]32C)ccc1N1C[C@H]2C[C@@H]1CN2C (single isomer, unassigned) [Example 426]"
8,100 to 1000 nM,"CN1C[C@H]2C[C@@H]1CN2c1ccc(Nc2ncc3c(n2)N(c2cccc(C(C)(C)O)n2)[C@H]2CC(C)(C)OC[C@@]32C)cc1F (single isomer, unassigned) [Example 428]"
9,10 to 100 nM,"Cc1cc(Nc2ncc3c(n2)N(c2cccc(C(C)(C)O)n2)[C@H]2CC(C)(C)OC[C@@]32C)ccc1N1C[C@@H]2C[C@H]1CN2C (single isomer, unassigned) [Example 430]"
10,100 to 1000 nM,"CN1C[C@@H]2C[C@H]1CN2c1ccc(Nc2ncc3c(n2)N(c2cccc(C(C)(C)O)n2)[C@H]2CC(C)(C)OC[C@@]32C)cc1F (single isomer, unassigned) [Example 432]"
11,10 to 100 nM,"CN1C[C@H]2C[C@@H]1CN2c1ccc(Nc2ncc3c(n2)N(c2cccc(C(C)(C)O)n2)[C@H]2CC(C)(C)OC[C@@]32C)cc1Cl (single isomer, unassigned) [Example 434]"
12,10 to 100 nM,"CN1C[C@@H]2C[C@H]1CN2c1ccc(Nc2ncc3c(n2)N(c2cccc(C(C)(C)O)n2)[C@H]2CC(C)(C)OC[C@@]32C)cc1Cl (single isomer, unassigned) [Example 436]"
13,100 to 1000 nM,"CN1CC[C@@H]2CN(c3ccc(Nc4ncc5c(n4)N(c4cccc(C(C)(C)O)n4)[C@H]4CC(C)(C)OC[C@@]54C)cc3)C[C@@H]21 (single isomer, unassigned) [Example 438]"
14,10 to 100 nM,"CN1CC[C@H]2CN(c3ccc(Nc4ncc5c(n4)N(c4cccc(C(C)(C)O)n4)[C@H]4CC(C)(C)OC[C@@]54C)cc3)C[C@H]21 (single isomer, unassigned) [Example 440]"
15,100 to 1000 nM,"CN1[C@@H]2C[C@H]1CN(c1ccc(Nc3ncc4c(n3)N(c3cccc(C(C)(C)O)n3)[C@H]3CC(C)(C)OC[C@@]43C)cc1)C2 (single isomer, unassigned) [Example 442]"
16,100 to 1000 nM,"CN1CC2(C1)CN(c1ccc(Nc3ncc4c(n3)N(c3cccc(C(C)(C)O)n3)[C@H]3CC(C)(C)OC[C@@]43C)cc1)C2 (single isomer, unassigned) [Example 444]"
17,100 to 1000 nM,"CN1C[C@@H]2CN(c3ccc(Nc4ncc5c(n4)N(c4cccc(C(C)(C)O)n4)[C@H]4CC(C)(C)OC[C@@]54C)cc3)C[C@@H]2C1 (single isomer, unassigned) [Example 445]"
18,100 to 1000 nM,"CNCc1cccc(N2c3nc(Nc4ccc([C@H]5CCNC5)cc4)ncc3[C@]3(C)COC(C)(C)C[C@H]23)n1 (single isomer, unassigned) [Example 451]"
19,100 to 1000 nM,"CNCc1cccc(N2c3nc(Nc4ccc([C@@H]5CCNC5)cc4)ncc3[C@]3(C)COC(C)(C)C[C@H]23)n1 (single isomer, unassigned) [Example 453]"
20,≥ 1000 nM,"CNCc1cccc(N2c3nc(Nc4ccc(C(C)(C)C(=O)O)cc4)ncc3[C@]3(C)COC(C)(C)C[C@H]23)n1 (single isomer, unassigned) [Example 457]"
21,100 to 1000 nM,"CNCc1cccc(N2c3nc(Nc4ccc(N5CCOC[C@H]5C)cc4)ncc3[C@]3(C)COC(C)(C)C[C@H]23)n1 (single isomer, unassigned) [Example 474]"
22,100 to 1000 nM,"CNCc1cccc(N2c3nc(Nc4ccc(N5CCOC[C@@H]5C)cc4)ncc3[C@]3(C)COC(C)(C)C[C@H]23)n1 (single isomer, unassigned) [Example 475]"
23,100 to 1000 nM,"CNCc1cccc(N2c3nc(Nc4ccc(N5C[C@H]6C[C@@H](C5)O6)cc4)ncc3[C@]3(C)COC(C)(C)C[C@H]23)n1 (single isomer, unassigned) [Example 482]"
24,< 10 nM,"CC1(C)C[C@H]2N(c3cccc(N=S(C)(C)=O)n3)c3nc(Nc4ccc(N5CC6(COC6)C5)cc4)ncc3[C@@]2(C)CO1 (single isomer, unassigned) [Example 508]"
25,< 10 nM,"CC1(C)C[C@H]2N(c3cccc(N=S(C)(C)=O)n3)c3nc(Nc4ccc(N5CCN6CCC5C6)cc4)ncc3[C@@]2(C)CO1 (single isomer, unassigned) [Example 511]"
